Data reported in US20250206708A1, “AN OXAZIRIDINE PLATFORM FOR TARGETING FUNCTIONAL ALLOSTERIC METHIONINE SITES” (Novartis AG, priority 2022, published 2025).

Experiments:
CDK1 [1] = target: T1, CDK1 (Homo sapiens, UniProt P06493); assay: Gel-based ABPP, isoform specificity on CDK1; format: binding; details: dose-dependent treatment
Procedure: Activity-based protein profiling (ABPP) was performed as follows. CDK4 was diluted in PBS to 50 nM, then 50 μL was added to each well of a 96-well PCR plate. Ligands were dissolved fresh in DMSO to 5 μM, and 1 μL was added so each well contained a unique ligand at the indicated concentration. Wells were mixed and allowed to incubate 1 h at 23° C. Ligands were then chased with fresh Compound 301 with 1 μL of 5 μM added to each well (100 nM final), wells mixed and allowed to incubate 1 h at 23° C. Excess oxaziridine was quenched with N-acetyl methionine via addition of 1 μL of 10 mM DMSO stock (200 μM final), wells mixed and allowed to incubate 1 h at 23° C. A stock was prepared 1:5 of 12.5 μM DBCO-Cy3 in DMSO: 1.2% SDS/PBS. To each well was added 6 μL of this stock, the wells mixed and allowed to incubate overnight protected from light at 23° C. The next morning 30 μL of 4×Laemmli's buffer containing 10% BME was added to each well. The plate was sealed and brought to 95° C. for 6 min. Samples were loaded and separated on precast 4-20% TGX gels and scanned by ChemiDoc MP for measuring in-gel fluorescence. After that, the total protein level on the gel was assayed by silver staining according to the manufacturer's protocol and scanned by ChemiDoc MP.
The isoform specificity was tested with two closely-related congeners, CDK1 and CDK6.

CDK1 [2] = target: T1, CDK1; assay: Shotgun proteomics (MS/MS) modification of purified CDK1; format: binding; details: shotgun proteomics on purified protein
CDK6 = CDK6 (Homo sapiens, UniProt Q00534); assay: Shotgun proteomics (MS/MS) modification of purified CDK6; format: binding; details: shotgun proteomics on purified protein
[3] = test system: ribociclib-sensitive cell lines; assay: Cell viability screen across ribociclib-sensitive cell lines; format: cell-based; details: 500 μM compound
Procedure: All cells were maintained as a monolayer in exponential growth at 37° C. in a 5% CO2 atmosphere. MCF-7 and HepG2 were maintained in Dulbecco's Modified Eagle Medium (DMEM, Gibco) supplemented with 10% (v/v) fetal bovine serum (FBS, Seradigm). HT-29 and SW-48 were maintained in RPMI 1640 Medium (Gibco) supplemented with 10% FBS.
All cells dosed with oxaziridine were treated using a 2% DMSO/media solution. Oxaziridines were dissolved in DMSO and used the same day as treatment. Media was removed from cells and replaced with fresh media containing oxaziridine in DMSO for a final concentration of 2% DMSO. Control wells were treated with 2% DMSO/media. Cells were incubated at 37° C. in a 5% CO2 atmosphere.
Commercially available Cell Counting Kit-8 Assay (Dojindo) was used to investigate cell viability after treatment with oxaziridines. Cells were plated in 96-well plates (black/clear bottom; Thermo Fisher) and grown to 75% confluency. Media was removed and replaced with media containing 2% DMSO and indicated compound concentration. Cells were allowed to incubate 24 h. To assess viability, media was removed and replaced with 100 μL media containing 10% CCK-8 assay solution. Plates were incubated at 37° C. in a 5% CO2 atmosphere for 1-4 h until an orange color was visible. Viability was quantified via plate reader (monofilter) with absorption at 450 nm. […]

T1 sequence (P06493 whole entry, canonical isoform): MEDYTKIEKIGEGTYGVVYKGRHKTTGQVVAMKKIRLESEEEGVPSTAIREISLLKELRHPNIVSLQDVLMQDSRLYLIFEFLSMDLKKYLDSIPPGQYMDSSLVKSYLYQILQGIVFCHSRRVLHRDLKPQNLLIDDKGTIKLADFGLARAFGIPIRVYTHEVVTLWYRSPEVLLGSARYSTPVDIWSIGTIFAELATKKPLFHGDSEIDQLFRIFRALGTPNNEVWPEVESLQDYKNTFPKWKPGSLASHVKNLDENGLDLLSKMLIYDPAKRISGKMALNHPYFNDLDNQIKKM
Chain of CDK6 (Q00534 whole entry): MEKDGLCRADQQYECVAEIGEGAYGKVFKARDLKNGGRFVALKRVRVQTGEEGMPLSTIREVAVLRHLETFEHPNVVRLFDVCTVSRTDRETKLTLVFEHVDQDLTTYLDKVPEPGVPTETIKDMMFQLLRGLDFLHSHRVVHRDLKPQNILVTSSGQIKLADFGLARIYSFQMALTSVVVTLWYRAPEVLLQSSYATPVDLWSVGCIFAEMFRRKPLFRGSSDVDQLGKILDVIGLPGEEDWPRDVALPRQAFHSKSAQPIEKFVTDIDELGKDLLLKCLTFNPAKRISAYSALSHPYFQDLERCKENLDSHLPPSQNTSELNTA

O=C(N1CC2COCC2C1)N1OC1c1ccccc1 (stereo not shown) [Compound 148]
labeling against CDK1 by gel analysis (CDK1 [1]): no dose-dependent labeling
modifications on CDK1 (CDK1 [2]): No modifications
modifications on CDK6 (CDK6): No modifications
cell viability of ribociclib-sensitive cell lines [3]: decrease cell viability
